Patent US20160296529A1, “AMINOTRIAZOLOPYRIDINE FOR USE IN THE TREATMENT OF INFLAMMATION, AND PHARMACEUTICAL COMPOSITIONS THEREOF” (priority 2012, published 2016)

Columns and labels:
rat CIA model = assay: CIA model 2 (rat collagen induced arthritis, ankle diameter); assay type: in vivo, Female Lewis rats
Excerpt: Female Lewis rats (n=76) that weighed 165-194 grams (mean approx. 178 g) on arthritis day 0 were obtained from Charles River Laboratories, Inc., Wilmington, Mass., (ref#393739). Animals were identified by a distinct number at the base of the tail delineating group and animal number.
Upon arrival, animals were housed 4/cage in shoe-box polycarbonate cages and acclimated for 8 days prior to being immunized with type II collagen. No concurrent medications were given.
During the acclimation and study periods, animals were housed in a laboratory environment with temperatures ranging 19-25° […]. and relative humidity of 30%-70%. Automatic timers provided 12 h of light and 12 h of dark. Animals were allowed access ad libitum to food and water.
Acclimated female Lewis rats were anesthetized with Isoflurane and receive subcutaneous/intradermal (SC/ID) injections with 300 μL of Freund's Incomplete Adjuvant (Difco, Detroit, Mich.) containing 2 mg/mL bovine type II collagen (Elastin Products, Owensville, Mo.) at the base of the tail and 2 sites on the back on day −9 and on day −3.
Collagen was prepared by making a 4 mg/mL solution in 0.01N Acetic acid. Equal volumes of collagen and Freund's incomplete adjuvant, were emulsified by hand mixing until a bead of this material holds its form when placed in water. Each animal received 300 μL of the mixture on each occasion divided over 3 subcutaneous sites on back.
On study day 1, onset of arthritis occurred and animals were randomized into treatment groups. After randomization, all cages were labelled with protocol number, group number, and animal numbers. Randomization into each group was done after ankle joint swelling was obviously established and there was good evidence of bilateral disease.
Animals with established type II collagen arthritis were treated daily (QD) by the oral (PO) route for 13 days with vehicle (methylcellulose 0.5% (w/v)), or with active compound(s) prepared in methylcellulose, 0.5% (w/v). Oral dosing was initiated on arthritis day 1 and continued daily (QD at 24 h intervals) through day 13. Animals were terminated on arthritis day 14.
The severity of the arthritis was evaluated by measuring the diameter of both ankles on the animals. Caliper measurements of ankles were taken every day beginning on day 0, with a Digitrix II micrometer (Fowler & NSK). Baseline measurements were taken using one ankle with values rounded to one-thousandth of an inch. Measurements were confirmed as clinically normal (0.260-0.264 in) by comparison with historical values for rats based on a range of body weights. Baseline measurements were then applied to both ankles, and these values remain with the animal so long as the ankle was clinically normal with good definition of all the ankle bones and no evidence of inflammation. Animals were terminated on day 14.

[1] = Single dose pharmacokinetics in animals, rabbit; assay type: in vivo, New Zealand White rabbits; settings: male, New Zealand White, plasma, after Formula II 20 mg/kg oral, read-out: exposure (expressed as AUC)
Description: Pharmacokinetic studies were performed in various animal species dosed with the compound according to Formula II to determine the exposure to the compound according to Formula I as well as its apparent terminal half life (T1/2), when possible.
Sprague-Dawley rats (male, 200-250 g), CD1 mice (male, 25-30 g), Beagle dogs (male, 9-10 kg), Göttingen minipigs (male, […]) were acclimatized for at least 7 days before treatment and were kept on a 12 hr light/dark cycle (07 h00-19 h00).
Temperature was maintained at approximately 22° C., and food and water were provided ad libitum. […]
Blood samples were collected over a 24-h period via the jugular vein (dog, minipig), ear blood vessel (rabbit), cardiac puncture (mouse) or retro-orbital sinus (rat) with lithium heparin as anti-coagulant. Whole blood samples were centrifuged and the resulting plasma samples were stored at −20° C. pending analysis.
Plasma concentrations of the compound according to Formula I and of the compound according to Formula II were determined by an LC-MS/MS method with a limit of quantification ≦10.0 ng/mL for both Formula I and Formula II for all species.
Pharmacokinetic parameters were calculated using a statistical analysis package (WinNonLin (Pharsight, Sunnyvale, Calif.: CA 94086, USA).

Q: What does the source list for `O=C(Nc1nc2cccc(-c3ccc(CN4CCS(=O)(=O)CC4)cc3)n2n1)C1CC1` [Formula II, Cyclopropanecarboxylic acid {5-[4-(1,1-dioxo-thiomorpholin-4-ylmethyl)-phenyl]-[1,2,4]triazolo[1,5-a]pyridin-2-yl}-amide]?
A: ankle diameter (rat CIA model; group C: Formula II 1 mg/kg PO QD, day 0): 0.2625 inches; ankle diameter (rat CIA model; group C: Formula II 1 mg/kg PO QD, day 1): 0.2716 inches; ankle diameter (rat CIA model; group C: Formula II 1 mg/kg PO QD, day 2): 0.2755 inches; ankle diameter (rat CIA model; group C: Formula II 1 mg/kg PO QD, day 3): 0.2869 inches; ankle diameter (rat CIA model; group C: Formula II 1 mg/kg PO QD, day 4): 0.2990 inches; ankle diameter (rat CIA model; group C: Formula II 1 mg/kg PO QD, day 5): 0.3106 inches; ankle diameter (rat CIA model; group C: Formula II 1 mg/kg PO QD, day 6): 0.3231 inches; ankle diameter (rat CIA model; group C: Formula II 1 mg/kg PO QD, day 7): 0.3296 inches; ankle diameter (rat CIA model; group C: Formula II 1 mg/kg PO QD, day 8): 0.3291 inches; ankle diameter (rat CIA model; group C: Formula II 1 mg/kg PO QD, day 9): 0.3268 inches; ankle diameter (rat CIA model; group C: Formula II 1 mg/kg PO QD, day 10): 0.3270 inches; ankle diameter (rat CIA model; group C: Formula II 1 mg/kg PO QD, day 11): 0.3185 inches; ankle diameter (rat CIA model; group C: Formula II 1 mg/kg PO QD, day 12): 0.3178 inches; ankle diameter (rat CIA model; group C: Formula II 1 mg/kg PO QD, day 13): 0.3185 inches; ankle diameter (rat CIA model; group C: Formula II 1 mg/kg PO QD, day 14): 0.3226 inches; ankle diameter (rat CIA model; group D: Formula II 3 mg/kg PO QD, day 0): 0.2623 inches; ankle diameter (rat CIA model; group D: Formula II 3 mg/kg PO QD, day 1): 0.2718 inches; ankle diameter (rat CIA model; group D: Formula II 3 mg/kg PO QD, day 2): 0.2755 inches; ankle diameter (rat CIA model; group D: Formula II 3 mg/kg PO QD, day 3): 0.2869 inches; ankle diameter (rat CIA model; group D: Formula II 3 mg/kg PO QD, day 4): 0.2957 inches; ankle diameter (rat CIA model; group D: Formula II 3 mg/kg PO QD, day 5): 0.3058 inches; ankle diameter (rat CIA model; group D: Formula II 3 mg/kg PO QD, day 6): 0.3168 inches; ankle diameter (rat CIA model; group D: Formula II 3 mg/kg PO QD, day 7): 0.3205 inches; ankle diameter (rat CIA model; group D: Formula II 3 mg/kg PO QD, day 8): 0.3259 inches; ankle diameter (rat CIA model; group D: Formula II 3 mg/kg PO QD, day 9): 0.3216 inches; ankle diameter (rat CIA model; group D: Formula II 3 mg/kg PO QD, day 10): 0.3197 inches; ankle diameter (rat CIA model; group D: Formula II 3 mg/kg PO QD, day 11): 0.3156 inches; ankle diameter (rat CIA model; group D: Formula II 3 mg/kg PO QD, day 12): 0.3165 inches; ankle diameter (rat CIA model; group D: Formula II 3 mg/kg PO QD, day 13): 0.3175 inches; ankle diameter (rat CIA model; group D: Formula II 3 mg/kg PO QD, day 14): 0.3174 inches; significance to vehicle control (ANOVA) in the CIA second model (rat CIA model; group E: Formula II 10 mg/kg PO QD): mg/kg (*) (((*) = p ≦ 0.05 ANOVA to vehicle control)); ankle diameter (rat CIA model; group E: Formula II 10 mg/kg PO QD, day 0): 0.2626 inches; ankle diameter (rat CIA model; group E: Formula II 10 mg/kg PO QD, day 1): 0.2718 inches; ankle diameter (rat CIA model; group E: Formula II 10 mg/kg PO QD, day 2): 0.2744 inches; ankle diameter (rat CIA model; group E: Formula II 10 mg/kg PO QD, day 3): 0.2808 inches; ankle diameter (rat CIA model; group E: Formula II 10 mg/kg PO QD, day 4): 0.2850 inches; ankle diameter (rat CIA model; group E: Formula II 10 mg/kg PO QD, day 5): 0.2921 inches; ankle diameter (rat CIA model; group E: Formula II 10 mg/kg PO QD, day 6): 0.3000 inches; ankle diameter (rat CIA model; group E: Formula II 10 mg/kg PO QD, day 7): 0.3031 inches; ankle diameter (rat CIA model; group E: Formula II 10 mg/kg PO QD, day 8): 0.3108 inches; ankle diameter (rat CIA model; group E: Formula II 10 mg/kg PO QD, day 9): 0.3119 inches; ankle diameter (rat CIA model; group E: Formula II 10 mg/kg PO QD, day 10): 0.3122 inches; ankle diameter (rat CIA model; group E: Formula II 10 mg/kg PO QD, day 11): 0.3090 inches; ankle diameter (rat CIA model; group E: Formula II 10 mg/kg PO QD, day 12): 0.3070 inches; ankle diameter (rat CIA model; group E: Formula II 10 mg/kg PO QD, day 13): 0.3069 inches; ankle diameter (rat CIA model; group E: Formula II 10 mg/kg PO QD, day 14): 0.3066 inches; significance to vehicle control (ANOVA) in the CIA second model (rat CIA model; group F: Formula II 30 mg/kg PO QD): mg/kg (*) (((*) = p ≦ 0.05 ANOVA to vehicle control)); ankle diameter (rat CIA model; group F: Formula II 30 mg/kg PO QD, day 0): 0.2620 inches; ankle diameter (rat CIA model; group F: Formula II 30 mg/kg PO QD, day 1): 0.2718 inches; ankle diameter (rat CIA model; group F: Formula II 30 mg/kg PO QD, day 2): 0.2679 inches; ankle diameter (rat CIA model; group F: Formula II 30 mg/kg PO QD, day 3): 0.2683 inches; ankle diameter (rat CIA model; group F: Formula II 30 mg/kg PO QD, day 4): 0.2708 inches; ankle diameter (rat CIA model; group F: Formula II 30 mg/kg PO QD, day 5): 0.2698 inches; ankle diameter (rat CIA model; group F: Formula II 30 mg/kg PO QD, day 6): 0.2696 inches; ankle diameter (rat CIA model; group F: Formula II 30 mg/kg PO QD, day 7): 0.2706 inches; ankle diameter (rat CIA model; group F: Formula II 30 mg/kg PO QD, day 8): 0.2741 inches; ankle diameter (rat CIA model; group F: Formula II 30 mg/kg PO QD, day 9): 0.2721 inches; ankle diameter (rat CIA model; group F: Formula II 30 mg/kg PO QD, day 10): 0.2706 inches; ankle diameter (rat CIA model; group F: Formula II 30 mg/kg PO QD, day 11): 0.2711 inches; ankle diameter (rat CIA model; group F: Formula II 30 mg/kg PO QD, day 12): 0.2685 inches; ankle diameter (rat CIA model; group F: Formula II 30 mg/kg PO QD, day 13): 0.2684 inches; ankle diameter (rat CIA model; group F: Formula II 30 mg/kg PO QD, day 14): 0.2679 inches; AUC [1]: 26000 ng·h/mL
